From ChEMBL document CHEMBL1201862, “PubChem BioAssay data set” (2004)
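96-well plates; 48 h exposure; 5 concentrations. Endpoints by linear interpolation between flanking doses. Not reached: highest tested concentration assigned. The concentration for 50% growth inhibition is given as GI50.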 Activity calls are given as the source filed them. No stated cut-off is given here; in the data, active = GI50 up to about 1.1 µM and inactive = higher.

What was measured:
Experiment in all cases: NCI tumour cell line growth inhibition, 48 h
[1] = tested on: SF-539
[2] = tested on: CCRF-CEM
[3] = tested on: SN12C
[4] = tested on: SNB-19
[5] = tested on: KM12
[6] = tested on: COLO 205
[7] = tested on: NCI-H226
[8] = tested on: SK-MEL-28
[9] = tested on: M14
[10] = tested on: LXFL 529
[11] = tested on: EKVX
[12] = tested on: ACHN
[13] = tested on: K562
[14] = tested on: RXF 393
[15] = tested on: SK-OV-3
[16] = tested on: OVCAR-5
[17] = tested on: Hs-578T
[18] = tested on: MDA-MB-231
[19] = tested on: T47D
[20] = tested on: DU-145

Measured: GI50

O=C1c2ccccc2C(=O)c2[nH]c(Cc3ccc(F)cc3)nc21
inactive: [1] 17.8 µM | [2] 24.6 µM | [3] 22 µM | [4] 24.4 µM | [5] 16.2 µM | [6] 22.1 µM | [7] 22.8 µM | [8] 18.7 µM | [9] 15.3 µM | [10] 26.4 µM | [11] 19.2 µM | [12] 14.2 µM | [13] 37.2 µM | [14] 6.97 µM

CCCCCCCC(=O)OCC1OC(n2cc(F)c(=O)[nH]c2=O)C(NC(=O)OCc2ccccc2)C(O)C1O (stereo not given)
inactive: [1] 83.4 µM | [2] 26.5 µM | [3] 32.9 µM | [4] 53.3 µM | [5] 32.4 µM | [6] 37.8 µM | [8] > 100 µM | [9] > 100 µM | [10] 31.3 µM | [11] > 100 µM | [12] > 100 µM | [15] > 100 µM | [13] 28.2 µM | [14] > 100 µM

O=C1C(=O)N(C(=O)c2ccc(Cl)c(Cl)c2)c2ccc(Cl)cc21
inactive: [1] > 100 µM | [2] 38.8 µM | [4] > 100 µM | [5] > 100 µM | [16] > 100 µM | [6] > 100 µM | [7] > 100 µM | [8] > 100 µM | [9] > 100 µM | [10] 71.4 µM | [11] 74 µM | [12] > 100 µM | [15] > 100 µM | [13] 59.3 µM | [14] > 100 µM

COC(=O)C(=O)C(C(=O)C(=O)Nc1cc(C)ccc1C)c1nc2ccc(C(=O)c3ccccc3)cc2nc1O (stereo not given)
inactive: [1] > 100 µM | [2] 42.2 µM | [3] > 100 µM | [4] > 100 µM | [5] 71.4 µM | [16] 43.1 µM | [6] > 100 µM | [7] 62.1 µM | [8] > 10 µM | [9] > 100 µM | [10] 43.5 µM | [11] > 100 µM | [12] > 100 µM | [13] 31 µM | [14] 46.3 µM

C=C1CC(CC(=O)C(C)CC2CC(=C)C(=O)O2)OC1=O (stereo not given)
inactive: [1] 18.8 µM | [2] 6.3 µM | [3] 16.7 µM | [4] > 100 µM | [5] 10.5 µM | [16] 65.9 µM | [6] 13.6 µM | [8] 15.8 µM | [9] 15.8 µM | [10] 12.8 µM | [11] 52.2 µM | [12] 18.6 µM | [15] > 100 µM | [13] 22.7 µM | [14] 18.7 µM

NC(=S)N/N=C/C(=C/Nc1ccccc1)[N+](=O)[O-]
inactive: [1] > 100 µM | [2] > 100 µM | [3] > 100 µM | [4] > 100 µM | [16] > 100 µM | [6] > 100 µM | [7] 53 µM | [8] > 100 µM | [9] > 100 µM | [10] > 100 µM | [11] > 100 µM | [12] > 100 µM | [15] > 100 µM | [13] > 100 µM | [14] > 100 µM

COC(=O)C(C(=O)Cc1ccccc1[N+](=O)[O-])C(=O)OC
inactive: [1] > 100 µM | [2] 74.6 µM | [3] > 100 µM | [4] > 100 µM | [5] > 100 µM | [6] > 100 µM | [7] > 100 µM | [8] > 100 µM | [9] > 100 µM | [10] > 100 µM | [11] > 100 µM | [12] > 100 µM | [15] > 100 µM | [14] > 100 µM

COC(=O)C1=CC2C(=O)OC1CC2C#N (stereo not given)
inactive: [1] > 100 µM | [2] > 100 µM | [3] > 100 µM | [4] > 100 µM | [5] > 100 µM | [6] > 100 µM | [7] > 100 µM | [8] > 100 µM | [9] > 100 µM | [10] > 100 µM | [12] > 100 µM | [15] > 100 µM | [13] > 100 µM

CC(C)NCCCC(C)Nc1ccnc2ccc3nn(C)nc3c12 (stereo not given)
inactive: [1] 83.2 µM | [2] 41.9 µM | [3] 61.8 µM | [4] > 100 µM | [5] 50.8 µM | [16] 75.7 µM | [6] 28.3 µM | [7] 31.8 µM | [9] 38.8 µM | [10] 57.1 µM | [11] > 100 µM | [12] 61.2 µM | [15] > 100 µM | [13] 33.2 µM

CC(C)N1CCOC(c2ccc(O)c(O)c2)C1 (stereo not given)
inactive: [2] > 100 µM | [3] > 100 µM | [4] > 100 µM | [5] > 100 µM | [16] > 100 µM | [6] > 100 µM | [8] > 100 µM | [9] > 100 µM | [10] > 100 µM | [11] > 100 µM | [12] > 100 µM | [15] > 100 µM | [13] > 100 µM | [14] > 100 µM

Cc1c(N)c(C#N)c2n(C)c3ncccc3n2c1=O
inactive: [1] > 100 µM | [2] > 100 µM | [3] > 100 µM | [4] > 100 µM | [5] > 100 µM | [6] > 100 µM | [7] > 100 µM | [8] > 100 µM | [9] > 100 µM | [10] > 100 µM | [11] > 100 µM | [12] > 100 µM | [15] > 100 µM | [13] > 100 µM | [14] > 100 µM

CN(C(=O)C12C3C4C1C1C2C3C41I)C(C)(C)C (stereo not given)
inactive: [1] > 100 µM | [3] > 100 µM | [4] > 100 µM | [5] > 100 µM | [16] > 100 µM | [6] > 87.1 µM | [7] > 51.5 µM | [8] > 100 µM | [9] > 100 µM | [10] > 87.1 µM | [11] 64.9 µM | [12] 98.9 µM | [15] > 100 µM

C[N+](C)(C)CC(=O)N/N=C(\C(=O)Nc1ccc(Cl)cc1)C1C(=O)N(c2ccccc2)N=C1N (stereo not given)
inactive: [1] > 100 µM | [2] > 100 µM | [3] > 100 µM | [4] > 100 µM | [5] > 100 µM | [16] > 100 µM | [6] > 100 µM | [8] > 100 µM | [9] > 100 µM | [10] > 100 µM | [11] > 100 µM | [12] > 100 µM | [15] > 100 µM | [13] > 100 µM | [14] > 100 µM

O=C(Nc1cc(Cl)cc(Cl)c1)/C(Cc1nc2ccccc2nc1O)=N/NC(=O)c1ccncc1
inactive: [1] > 100 µM | [2] > 100 µM | [4] > 100 µM | [5] > 100 µM | [16] 67 µM | [6] > 100 µM | [9] > 100 µM | [10] > 100 µM | [11] > 100 µM | [12] > 100 µM | [15] > 100 µM | [13] > 100 µM

N#CC(C(=O)/C(=N/NC(=O)c1ccccc1O)C(C#N)c1ccccc1)c1ccccc1 (stereo not given)
inactive: [1] > 100 µM | [3] > 100 µM | [5] > 100 µM | [6] > 100 µM | [7] > 100 µM | [8] > 100 µM | [9] > 100 µM | [10] > 100 µM | [11] > 100 µM | [12] > 100 µM | [15] > 100 µM | [14] > 100 µM

NC(=S)N/N=C1/C(=O)N(c2ccc(Cl)cc2Cl)C(=O)C(=O)C1c1nc2ccccc2s1 (stereo not given)
inactive: [1] > 100 µM | [3] > 100 µM | [4] > 100 µM | [5] > 100 µM | [16] > 100 µM | [6] > 100 µM | [7] > 100 µM | [8] > 100 µM | [9] > 100 µM | [10] > 100 µM | [11] > 100 µM | [12] > 100 µM | [15] > 100 µM | [13] > 100 µM | [14] > 100 µM

CN(C)CC1CCC(CN(C)C)C1=NO (stereo not given)
inactive: [1] > 100 µM | [2] > 100 µM | [3] > 100 µM | [16] > 100 µM | [6] > 100 µM | [8] > 100 µM | [9] > 100 µM | [10] > 100 µM | [11] > 100 µM | [12] > 100 µM | [13] > 100 µM | [14] > 100 µM

C#C[C@]1(O)CC[C@H]2[C@@H]3CCc4cc(O)ccc4[C@H]3CC[C@@]21C [ETHINYL ESTRADIOL]
inactive: [1] 17.6 µM | [2] 23.1 µM | [3] 36.8 µM | [4] 68.5 µM | [5] 13.6 µM | [16] 85.3 µM | [6] 31.3 µM | [7] 20.3 µM | [8] 65.2 µM | [10] 21.5 µM | [11] 11.7 µM | [12] 78.7 µM | [15] 24.4 µM | [14] 29 µM

CC(CNC(N)=O)NC(N)=O (stereo not given)
inactive: [1] > 100 µM | [17] > 100 µM | [2] > 100 µM | [3] > 100 µM | [4] > 100 µM | [5] > 100 µM | [16] > 100 µM | [6] > 100 µM | [18] > 100 µM | [19] > 100 µM | [7] > 100 µM | [8] > 100 µM | [9] > 100 µM | [11] > 100 µM | [12] > 100 µM | [15] > 100 µM | [13] > 100 µM | [20] > 100 µM | [14] > 100 µM
